{"source": "patent US7163944B2", "about": "“Cyclic diamine compound and pharmaceutical containing the same” (Kowa Co., Ltd., priority 2004, dated 2007)", "key": {"[1]": {"test_system": "lipid-loaded F1B hamster model", "test": "Aorta lipid deposition suppression test, lipid-loaded F1B hamster model", "assay_type": "in vivo", "details": "Bio F1B male hamsters, fat-rich diet 10 weeks, 1 mg/kg orally twice a day, aorta Oil red O area vs control group", "experimental": "Test 3: Aorta Lipid Deposition Suppression Test\nIn accordance with the method of Nicolosi, et al., a test using an animal model of arteriosclerosis, that is, a lipid-loaded F1B hamster model was made and a lipid deposition area in the aortic arch was measured to investigate the effects of the test compound for suppressing lipid deposition [refer to Nicolosi R J, et al., Atherosclerosis 137, 77–85(1988)].\nBio F1B male hamsters purchased from Charles River Japan, Inc. were divided at random into three groups (a compound (1) administered group, a comparative compound (B) administered group and a medicament non-administered group (control group)), each group consisting of 6 hamsters. […] After 10 weeks, an area of the lipid deposited in the aorta was measured by an image analyser. […]\nAn 18-G injection needle was inserted into the cardiac apex, followed by perfusion with physiological saline (120 mmHg) for about 5 minutes, and then, with a 4% paraformaldehyde solution (120 mmHg) for about 5 minutes. […] The image was scanned into a computer and the area of the portion stained with Oil red 0 and the area of the lumen surface were measured using an image analyser software (“Win Roof”, product of Mitani Shoji). In each case of each group, a ratio of the area of the portion stained with Oil Red O to the lumen surface area was calculated and it was designated as an aorta lipid deposition ratio. […]"}, "[2]": {"test": "Metabolic stability in human liver microsomes", "assay_type": "in vitro ADME", "experimental": "Test 2: Test on Metabolic Stability in Human Liver Microsomes\nIn accordance with the below-described Table 2, an NRS (NADPH regenerating system) solution and 16% human serum albumin were added to a 0.1 mol/L phosphate buffer (containing 3.3 mM magnesium chloride) (pH 7.4), followed by the addition of a solution of a test compound (100 μM) in acetonitrile (0.01 mL). After preincubation in a warm bath of 37° C. for 5 minutes, human liver microsomes (POOLED HUMAN LIVER MICROSOMES, Lot. No. 20, product of GENETEST) were added and a reaction was effected for 30 minutes in a warm bath of 37° C. A 0.25 mL portion of the reaction mixture was collected 0 and 30 minutes after the initiation of the reaction, followed by extraction. The amount of the test compound was measured by HPLC. A remaining ratio of the unchanged compound after 30 minutes was calculated based on the following equation: (peak area after 30 minutes/peak area at 0 minute)×100.\nTo each sample were added 1.0 mL of a glycine buffer (pH 10), 0.1 mL of an internal standard substance and 5.0 mL of tert-butyl methyl ether, followed by shaking for 10 minutes and centrifugal separation at 2500 rpm for 10 minutes to collect the organic layer."}, "[3]": {"biological_target": "T1, ACAT (Mus musculus, UniProt Q61263)", "T1 construct": "endogenous in cells; host or cells: J774 cells", "T1 sequence (Q61263 1-540)": "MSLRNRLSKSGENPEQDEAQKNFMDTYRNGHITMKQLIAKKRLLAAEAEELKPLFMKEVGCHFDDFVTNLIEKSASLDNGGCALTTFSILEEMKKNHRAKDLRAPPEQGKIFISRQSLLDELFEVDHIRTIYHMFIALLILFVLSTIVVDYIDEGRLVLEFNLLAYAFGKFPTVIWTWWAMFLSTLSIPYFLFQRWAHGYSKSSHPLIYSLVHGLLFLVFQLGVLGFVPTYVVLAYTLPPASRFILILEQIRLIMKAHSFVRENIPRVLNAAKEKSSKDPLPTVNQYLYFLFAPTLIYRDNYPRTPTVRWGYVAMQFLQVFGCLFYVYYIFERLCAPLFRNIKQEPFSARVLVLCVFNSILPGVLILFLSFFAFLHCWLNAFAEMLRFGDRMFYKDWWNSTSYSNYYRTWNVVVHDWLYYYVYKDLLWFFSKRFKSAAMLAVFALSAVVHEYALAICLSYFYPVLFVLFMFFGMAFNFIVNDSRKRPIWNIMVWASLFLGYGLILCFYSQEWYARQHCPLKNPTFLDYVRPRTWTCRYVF", "test": "Cholesterol ester accumulation inhibitory action (ACAT inhibitory activity) in J774 cells", "assay_type": "cell-based", "details": "25-hydroxycholesterol 10 μg/ml, 18 hours incubation, concentration inhibiting 50% of CE production, N=4", "experimental": "Test 1: Cholesterol Ester Accumulation Inhibitory Action (ACAT Inhibitory Activity) in J774 Cells.\nJ774 cells (2×10^5 cells/well) were seeded on a 24-well plate and incubated for 24 hours in 500 μL of DMEM (10% FBS). After replacement with a new medium, 25-hydroxycholesterol (10 μg/ml) and a test compound (final concentration: 0, 10^−9 to 10^−5 mol/L) were added, followed by incubation for 18 hours. After washing with 0.9% NaCl, the lipid was extracted with 250 μL of hexane-isopropanol (3:2) and then extracted with 250 μL of hexane-isopropanol (3:2) again. After the extracts were combined and distilled, the amount of cholesterol ester (CE) thus obtained was determined by the fluorescent enzyme assay. The cells from which the lipid was extracted were subjected to protein assay (micro BCA assay) and the amount of CE per mg of protein was determined. From a CE production ratio of the test compound to the control, IC50 (concentration of the compound inhibiting 50% of CE production) was calculated at N=4."}}}
{"smiles": "O=C(CN1CCN(CCSc2nc3cccc(C(F)(F)F)c3o2)CC1)Nc1c(C(F)(F)F)cc(O)cc1C(F)(F)F", "note": "[compound (1), 2-[4-[2-(7-trifluoromethylbenzoxazol-2-ylthio)ethyl]piperazin-1-yl]-N-[4-hydroxy-2,6-bis(trifluoromethyl)phenyl]acetamide]", "values": [{"measurement": "lipid deposition suppression ratio", "setting": "[1]", "value": 43, "unit": "%"}, {"measurement": "remaining ratio of the unchanged compound after 30 minutes", "setting": "[2]; pooled human liver microsomes, 37° C., 30 minutes, NADPH regenerating system, human serum albumin, HPLC", "value": 38, "unit": "%"}, {"measurement": "metabolic resistance in human liver microsomes relative to compound (B)", "setting": "[2]; times higher than compound (B)", "value": "about 40 times"}, {"measurement": "melting point", "value": "176 to 177", "unit": "°C"}, {"measurement": "IC50", "setting": "[3]", "value": 49, "unit": "nM"}]}
